Legend:
[1] = test system: Tetranychus urticae koch, parthenogenetic females; experiment: Acaricidal activity by contact-ingestion; assay type: in vivo; conditions: bean leaves treated by dipping, three days after contamination, average of two experiments
Description: Acaricidal activity by contact-ingestion
(foliage treated by dipping: Tetranychus urticae koch, parthenogenetic females).
An aqueous emulsion of the active ingredient to be tested is prepared by grinding the latter, in a Potter mill, in water containing 0.02% of Tween 80. The aqueous emulsion is then brought to the desired concentration by dilution with water containing 0.01% of Scurol O.
Bean plants (Phaseolus vulgaris--Contender variety) at the "cotyledonary leaf" stage are used. Each plant is treated by dipping the leaves for 10 seconds in the aqueous emulsion containing the active ingredient to be tested, at the desired concentration, two plants being used for each concentration. The experiment was carried out for active ingredient concentrations ranging from 2,000 mg/liter to 10 mg/liter. The bean plants are kept alive by immersing the roots and the base of the stem in distilled water.
After the surface of the foliage has dried, contamination is carried out by depositing, on each bean leaf, a highly contaminated leaf fragment produced by mite breeding. This leaf fragment is removed after 24 hours.
Three days after contamination, the number of dead mites and the number of living mites are counted under a binocular magnifying glass.
The percentage mortality is thus determined for each concentration (average of two experiments). […]

Phytophthora infestans = experiment: whole plant or invertebrate; assay type: in vivo; conditions: in Solanum lycopersicum, read-out: percentage inhibition of the development of the fungus
Peronospora tabacina = experiment: Greenhouse test on tobacco mildew; assay type: in vivo, Peronospora tabacina (on Nicotiana tabacum, Samson variety); conditions: for inhibition at 15 µg/mL: dose of 15 mg/liter; for inhibition at 500 µg/mL: dose of 500 mg/liter
From the text: Greenhouse test on tobacco mildew
The procedure of the previous example is followed, except that the plants are tobacco plants (Nicotiana tabacum) of the Samson variety, and that these plants are contaminated with spores of Peronospora tabacina, which is responsible for tobacco mildew.
Under these conditions, it was observed that, for the compounds or mixtures of compounds described in the above examples, the minimum inhibitory concentrations causing from 95 to 100% inhibition of the fungus in question (MIC 95-100) are respectively as follows:
In this experiment, the observed percentage inhibition of the development of the fungus in question was between 20% and 90%: […]

[2] = read-out: percentage inhibition of the development of the fungus

CN(C)S(=O)(=O)n1c(C#N)nc2c(C(F)(F)F)cc(C(F)(F)F)cc21 [Compound 70]
LC90, concentration which causes 90% mortality of the mites [1]: 10 mg/L

CS(=O)(=O)n1c(C#N)nc2c(Cl)cc(Cl)cc21 [Compound 17]
inhibition at 15 µg/mL (Phytophthora infestans): 20 to 90%

CN(C)S(=O)(=O)n1c(C#N)nc2c(Br)cc(Br)cc21 [Compound 39]
inhibition at 8 µg/mL (Phytophthora infestans): 20 to 90%

CC(C)S(=O)(=O)n1c(C#N)nc2c(Cl)cccc21 [Compound 21]
inhibition at 8 µg/mL (Peronospora tabacina; dose of 8 mg/liter, read-out: percentage inhibition of the development of the fungus): 20 to 90%

CC(C)S(=O)(=O)n1c(C#N)nc2ccccc21 [Compound 22]
inhibition at 15 µg/mL (Peronospora tabacina; [2]): 20 to 90%

CS(=O)(=O)n1c(C#N)nc2ccccc21 [Compound 16]
inhibition at 15 µg/mL (Peronospora tabacina; [2]): 20 to 90%

N#Cc1nc2c(Cl)cc(Cl)cc2n1S(=O)(=O)N1CCCC1 [Compound 57]
inhibition at 15 µg/mL (Peronospora tabacina; [2]): 20 to 90%

CN(C)S(=O)(=O)n1c(C#N)nc2c(Cl)c(Cl)ccc21 [Compound 45]
inhibition at 4 µg/mL (Phytophthora infestans): 20 to 90%

N#Cc1nc2ccccc2[nH]1 [2-Cyanobenzimidazole, 2-cyanobenzimidazole, reference compound]
inhibition at 1000 µg/mL (Peronospora tabacina; dose of 1,000 mg/liter, read-out: % inhibition (antifungal activity)): 0%

CN(C)S(=O)(=O)n1c(C#N)nc2cc(C(C)(C)C)ccc21 [Compound 11]
inhibition at 500 µg/mL (Phytophthora infestans): 20 to 90%

Cc1c([N+](=O)[O-])ccc2c1nc(C#N)n2S(=O)(=O)N(C)C [Compound 64]
inhibition at 15 µg/mL (Peronospora tabacina; [2]): 20 to 90%

COc1cc2c(nc(C#N)n2S(=O)(=O)N(C)C)c([N+](=O)[O-])c1OC [Compound 28]
inhibition at 500 µg/mL (Phytophthora infestans): 20 to 90%
inhibition at 500 µg/mL (Peronospora tabacina; [2]): 20 to 90%

CN(C)S(=O)(=O)n1c(C#N)nc2c(N)cccc21 [Compound 42]
inhibition at 500 µg/mL (Peronospora tabacina; [2]): 20 to 90%

Cc1cc(Br)cc2c1nc(C#N)n2S(=O)(=O)N(C)C [Compound 43]
inhibition at 500 µg/mL (Phytophthora infestans): 20 to 90%

CN(C)S(=O)(=O)n1c(C#N)nc2c(C(F)(F)F)cc(Cl)cc21 [Compound 61]
LC90, concentration which causes 90% mortality of the mites [1]: 2,000 mg/liter

Cc1c(Cl)ccc2c1nc(C#N)n2S(=O)(=O)N(C)C [Compound 50]
inhibition at 500 µg/mL (Phytophthora infestans): 20 to 90%

Cc1cc2nc(C#N)n(S(=O)(=O)N(C)C)c2cc1C [Compound 8]
inhibition at 500 µg/mL (Phytophthora infestans): 20 to 90%

— patent publication US4536502A (priority 1982, dated 1985)
